What was measured:
Eimeria tenella [1] = experiment: Anticoccidial activity in chickens inoculated with Eimeria tenella (Example 12); type: in vivo, chicken; conditions: for Cecal bleeding associated with E. tenella infections: 80 gram per ton; for weight gains compared with those of test compound 5 and lasalocid: 80 gram per ton (lasalocid 24 gram per ton)
Procedure: (§1) This example describes experimental testing of complexes of this invention for anticoccidial activity. Anticoccidial activities of test compounds were determined by administering the compounds (in feed) to chickens inoculated with active oocysts of Eimeria tenella. The test compounds, which are listed in Table 1 below, included four bacitracin-metal-polyether antibiotic complexes prepared according to the procedures described above. In addition, sodium lysocellin, regular bacitracin, sodium monensin, sodium lasolocid, and unmedicated inoculated and noninoculated controls were included for comparative purposes.
(§2) The test animals were Hubbard White Mountain male chicken (broiler strain) that were 5 days old at the beginning of the test. Each experimental compound was administered in a chick starter diet (Table 2) at a level of 80 g/ton and 120 g/ton. At 7 days of age, chicks were individually weighed, banded, and started on their respective treatments. Each treatment was replicated three times with five birds per replicate for a total of 15 birds per group. The test period was 10 days.
Seventy-two hours after the initiation of medication, birds were reweighed and orally inoculated with approximately 100,000 Eimeria tenella oocysts suspended in a 1 cc dose of saline. The following criteria were then evaluated over the next seven days:
A satisfactory challenge was obtained with Eimeria tenella.

Eimeria tenella [2] = experiment: Anticoccidial activity in chickens inoculated with Eimeria tenella oocysts (Example 11); type: in vivo; conditions: for Incidence of Bloody Droppings / Morbidity: 4th-6th day; for Morbidity: birds affected/birds in group; for Mortality: 4th-7th day, birds dead/birds in group; for F/G Day 0-3 / F/G Day 4-10: feed per gain
Procedure: as §1, §2
Seventy-two hours after the initiation of medication, birds were reweighed and orally inoculated with approximately 100,000 Eimeria tenella oocysts suspended in a 1 cc dose of saline. The following criteria were then evaluated over the next seven days: […]
a. morbidity (4th-6th day) b. mortality (4th-7th day) c. incidence of bloody droppings (4th-6th day)

buffered rumen fluid = experiment: Rumen screen, in vitro ruminal volatile fatty acid ratio (Examples 15, 16); type: cell-based, steer; conditions: 10 ppm, Neg. Control 1.39
Procedure: Rumen fluid was removed from a fistulated steer and strained through a cheesecloth. An equal amount of pH 7 buffer was added to strained rumen fluid. After layering occurred, the lower layer was saved and again diluted with equal amount of buffer. Ten ml. portions of buffered rumen fluid were added to fermentation vessels containing 500 mg. fresh finely ground cattle ration, 1 mg cellubiose and a test compound listed in Table 1 below at the indicated concentration. The fermentation vesels were outfitted with one-way gas valves, placed in an incubator and shaken for 24 hours at 38° C. Fermentation was stopped by addition of 1 ml mercuric chloride. The liquid was decanted and analyzed for volatile fatty acids by gas chromatography. Test results are summarized in Table 1, wherein Bac=bacitracin.
The procedures of Example 15 were repeated in all essential details with the test compounds and concentrations listed in Table 1 below, as are the results of the test.

[3] = Weight gain and feed utilization in chicks, 12 days (Example 14); type: in vivo, chicken; conditions: .0066% in feed; for Gain/Feed Data / Gains/gram Data: 12 days; for Gain/Feed Index Relative to #1 / Gains Index Relative to #1: #1 = unmedicated; for Gain/Feed Index Relative to #2 / Gains Index Relative to #2: #2 = zinc bacitracin
Procedure: (§3) This example describes experimetnal testing of complexes of the present invention as feed additives for improving weight gain or feed utilization efficiency in birds. Test animals were male meat-type chickens (Hubbard strain). Fluorescent room lights were on a 16 hours light/8 hours dark schedule. The chicks were allotted to the pens on the basis of weight classes, and chicks in the even numbered pens were wing banded. Group weights were obtained at the start and individual weights at the termination of the experiment. Chicks weighing between 55 and 65 grams were selected for the test. The test compounds were blended with a basal feed ration (shown in Table 2) at the indicated concentration. Birds fed […] and feed supplemented with zinc bacitracin (Baciferm® 50, International Minerals and Chemical Corp.) were used as controls. The test was continued for 11 days, after which individual weights, pen weight and feed consumption were recorded and analyzed.
All of the bacitracin-metal-polyether antibiotic complexes tested produced statistically significant increases in gains compared to the unmedicated basal ration.
The test involving test compounds 1 and 3-14 consisted of 5 replicates of 7 chicks and those involving test compound 2 consisted of 6 replicates of 7 chicks. The tests were continued for 12 days, after which individual weight gains and feed conusumption were recorded and analyzed.

[4] = Weight gain and feed utilization efficiency in chicks, 11 days (Example 13); type: in vivo, chicken; design: key to Average Weight: average weight in grams; conditions: for Average Gain / Gain/Feed Ratio / Average Weight / Gain/Feed / Average Gain Index / Gain/Feed Ratio Index: .00275% in rye basal diet; for Average Gain / Gain/Feed Ratio: 11 days; for Average Gain Index / Gain/Feed Ratio Index: unmedicated = 100
Procedure: as §3

[5] = 14 g/ton Lasalocid (Approx.), regrouped part of Table 2
[6] = 36 g/ton Lasalocid (Approx.), regrouped part of Table 2

Bacitracin-Cobalt-Lysocellin Complex [Example 1]
Cecal Bleeding (Eimeria tenella [1]; [5]): Severe
Gain/Bird Days 0-3 (Eimeria tenella [1]; [5]): 61.6
Gain/Bird Days 4-10 (Eimeria tenella [1]; [5]): 180.1
Cecal Bleeding (Eimeria tenella [1]; [6]): Slight
Feed/Gain Days 0-3 (Eimeria tenella [1]; [6]): 1.65
Gain/Bird Days 0-3 (Eimeria tenella [1]; [6]): 59.0
Gain/Bird Days 4-10 (Eimeria tenella [1]; [6]): 188.4
Incidence of Bloody Droppings (Eimeria tenella [1]; 80 g/ton in feed): Severe
Morbidity (Eimeria tenella [1]; 80 g/ton in feed): 6/15
Mortality (Eimeria tenella [1]; 80 g/ton in feed): 0/15
F/G Day 0-3 (Eimeria tenella [1]; 80 g/ton in feed): 1.62
Gain/Bird Grams Day 0-3 (Eimeria tenella [1]; 80 g/ton in feed): 61.6 Grams
F/G Day 4-10 (Eimeria tenella [1]; 80 g/ton in feed): 1.86
Gain/Bird Grams Day 4-10 (Eimeria tenella [1]; 80 g/ton in feed): 180.1 Grams
Cecal bleeding associated with E. tenella infections (Eimeria tenella [1]): severe
weight gains compared with those of test compound 5 and lasalocid (Eimeria tenella [1]): appreciably higher
Incidence of Bloody Droppings (Eimeria tenella [1]; 120 g/ton in feed): Slight-
Morbidity (Eimeria tenella [1]; 120 g/ton in feed): 4/15
Mortality (Eimeria tenella [1]; 120 g/ton in feed): 0/15
F/G Day 0-3 (Eimeria tenella [1]; 120 g/ton in feed): 1.64
Gain/Bird Grams Day 0-3 (Eimeria tenella [1]; 120 g/ton in feed): 59.0 Grams
F/G Day 4-10 (Eimeria tenella [1]; 120 g/ton in feed): 1.78
Gain/Bird Grams Day 4-10 (Eimeria tenella [1]; 120 g/ton in feed): 188.4 Grams
anticoccidial activity (in words) (Eimeria tenella [1]; 120 grams per ton): good anticoccidial activity
Incidence of Bloody Droppings (Eimeria tenella [2]; 80 g/ton in feed): Severe
Morbidity (Eimeria tenella [2]; 80 g/ton in feed): 10/15
Mortality (Eimeria tenella [2]; 80 g/ton in feed): 0/15
Gain, Grams Day 0-3 (Eimeria tenella [2]; 80 g/ton in feed): 58.4 Grams
Gain, Grams Day 4-10 (Eimeria tenella [2]; 80 g/ton in feed): 196.5 Grams
F/G Day 0-3 (Eimeria tenella [2]; 80 g/ton in feed): 1.75
F/G Day 4-10 (Eimeria tenella [2]; 80 g/ton in feed): 1.71
Incidence of Bloody Droppings (Eimeria tenella [2]; 120 g/ton in feed): Moderate
Morbidity (Eimeria tenella [2]; 120 g/ton in feed): 4/15
Mortality (Eimeria tenella [2]; 120 g/ton in feed): 0/15
Gain, Grams Day 0-3 (Eimeria tenella [2]; 120 g/ton in feed): 54.1 Grams
Gain, Grams Day 4-10 (Eimeria tenella [2]; 120 g/ton in feed): 209.1 Grams
F/G Day 0-3 (Eimeria tenella [2]; 120 g/ton in feed): 1.81
F/G Day 4-10 (Eimeria tenella [2]; 120 g/ton in feed): 1.66
A/P Ratio (buffered rumen fluid; Example 15, 24 hours at 38° C.): 1.10

Bacitracin-Nickel-Lysocellin Complex [Example 4]
Gain/Feed Data [3]: .585
Gains/gram Data [3]: 197.2 gram
Gain/Feed Index Relative to #1 [3]: 103.9
Gains Index Relative to #1 [3]: 106.5
Gain/Feed Index Relative to #2 [3]: 98.2
Gains Index Relative to #2 [3]: 94.1
Cecal Bleeding (Eimeria tenella [1]; [5]): Severe
Gain/Bird Days 0-3 (Eimeria tenella [1]; [5]): 63.3
Gain/Bird Days 4-10 (Eimeria tenella [1]; [5]): 164.1
Cecal Bleeding (Eimeria tenella [1]; [6]): Slight-Moderate
Gain/Bird Days 0-3 (Eimeria tenella [1]; [6]): 59.5
Gain/Bird Days 4-10 (Eimeria tenella [1]; [6]): 187.4
Incidence of Bloody Droppings (Eimeria tenella [1]; 80 g/ton in feed): Severe
Morbidity (Eimeria tenella [1]; 80 g/ton in feed): 9/15
Mortality (Eimeria tenella [1]; 80 g/ton in feed): 0/15
F/G Day 0-3 (Eimeria tenella [1]; 80 g/ton in feed): 1.61
Gain/Bird Grams Day 0-3 (Eimeria tenella [1]; 80 g/ton in feed): 63.3 Grams
F/G Day 4-10 (Eimeria tenella [1]; 80 g/ton in feed): 1.91
Gain/Bird Grams Day 4-10 (Eimeria tenella [1]; 80 g/ton in feed): 164.1 Grams
Cecal bleeding associated with E. tenella infections (Eimeria tenella [1]): severe
weight gains compared with those of test compound 5 and lasalocid (Eimeria tenella [1]): appreciably higher
Morbidity (Eimeria tenella [1]; 120 g/ton in feed): 5/15
Mortality (Eimeria tenella [1]; 120 g/ton in feed): 0/15
F/G Day 0-3 (Eimeria tenella [1]; 120 g/ton in feed): 1.69
Gain/Bird Grams Day 0-3 (Eimeria tenella [1]; 120 g/ton in feed): 59.5 Grams
F/G Day 4-10 (Eimeria tenella [1]; 120 g/ton in feed): 1.72
Gain/Bird Grams Day 4-10 (Eimeria tenella [1]; 120 g/ton in feed): 187.4 Grams
protection against cecal bleeding (Eimeria tenella [2]; 80 and 120 g/ton): only fair
bleeding (Eimeria tenella [2]; 80 and 120 g/ton, this test): slight bleeding
anticoccidial activity (in words) (Eimeria tenella [2]; 80 and 120 g/ton, mild E. tenella challenge): performed well
Incidence of Bloody Droppings (Eimeria tenella [2]; 80 g/ton in feed): Slight
Morbidity (Eimeria tenella [2]; 80 g/ton in feed): 2/15
Mortality (Eimeria tenella [2]; 80 g/ton in feed): 0/15
Gain, Grams Day 0-3 (Eimeria tenella [2]; 80 g/ton in feed): 60.8 Grams
Gain, Grams Day 4-10 (Eimeria tenella [2]; 80 g/ton in feed): 229.1 Grams
F/G Day 0-3 (Eimeria tenella [2]; 80 g/ton in feed): 1.70
F/G Day 4-10 (Eimeria tenella [2]; 80 g/ton in feed): 1.59
Incidence of Bloody Droppings (Eimeria tenella [2]; 120 g/ton in feed): Slight
Morbidity (Eimeria tenella [2]; 120 g/ton in feed): 1/15
Mortality (Eimeria tenella [2]; 120 g/ton in feed): 1/15
Gain, Grams Day 0-3 (Eimeria tenella [2]; 120 g/ton in feed): 58.6 Grams
Gain, Grams Day 4-10 (Eimeria tenella [2]; 120 g/ton in feed): 227.7 Grams
F/G Day 0-3 (Eimeria tenella [2]; 120 g/ton in feed): 1.70
F/G Day 4-10 (Eimeria tenella [2]; 120 g/ton in feed): 1.59
bleeding (Eimeria tenella [2]; 200 g/ton, in C-760 (another test)): no bleeding
A/P Ratio (buffered rumen fluid; Example 15, 24 hours at 38° C.): 1.10
A/P Ratio (buffered rumen fluid; Example 16): .88
Average Gain [4]: 217 g
Gain/Feed Ratio [4]: 62.8
Average Weight ([4]; Table 4): 277.0
Gain/Feed ([4]; Table 4): 62.8
Average Gain Index [4]: 105.4
Gain/Feed Ratio Index [4]: 98.5

Bacitracin-Zinc-Lysocellin Complex [Example 6]
Gain/Feed Data [3]: .609
Gains/gram Data [3]: 213.8 gram
Gain/Feed Index Relative to #1 [3]: 108.2
Gains Index Relative to #1 [3]: 115.5
Gain/Feed Index Relative to #2 [3]: 102.2
Gains Index Relative to #2 [3]: 102.0
A/P Ratio (buffered rumen fluid; Example 16): 1.14
Average Gain [4]: 219 g
Gain/Feed Ratio [4]: 66.7
Average Weight ([4]; Table 4): 279.4
Gain/Feed ([4]; Table 4): 66.7
Average Gain Index [4]: 106.6
Gain/Feed Ratio Index [4]: 104.7
improvement in feed utilization efficiency vs unmedicated controls ([4]; statistical comparison, Table 4): significant imporvement
